In patent US20250302965A1, “Preparations of Basic pH Hydrotropes & Methods for Making Same” (Aurora Pharmaceutical, Inc., priority 2023, published 2025):

test: Meloxicam formulations at different meglumine-to-meloxicam molar ratios; neutralization; format: physicochemical; conditions: […] w/v meloxicam formula, 2:1 meglumine-to-meloxicam, neutralized; pH crossed neutral

| Compound | Behaviour on neutralization |
| --- | --- |
| Cc1cnc(NC(=O)C2=C(O)c3ccccc3S(=O)(=O)N2C)s1 [Meloxicam] | fell out of solution |

test: not given; conditions: cited from earlier work

| Compound | acidity (pKa) |
| --- | --- |
| CNC[C@H](O)[C@@H](O)[C@H](O)[C@H](O)CO [Meglumine] | 8.01 |

test: not given; conditions: source named in cell (Merck Index, Pubchem, published literature); cited from earlier work

| Compound | Reported Solubility in Water (in w/v) |
| --- | --- |
| CCc1ccc(Nc2c(F)c(F)cc(F)c2F)c(CC(=O)O)c1 [Robenacoxib] | 0.017% (published literature) % w/v |
| Nc1ccc(S(=O)(=O)Nc2ncccn2)cc1 [Sulfadiazine] | 0.0077% (Pubchem) % w/v |
| CN1C(C(=O)Nc2ccccn2)=C(O)c2ccccc2S1(=O)=O [Piroxicam] | 0.00497% (Pubchem) % w/v |
| COc1cc(NS(=O)(=O)c2ccc(N)cc2)nc(OC)n1 [Sulfadimethoxine] | 0.0343% (Pubchem) % w/v |
| CCc1nc2c(C)nc(C)cc2n1-c1ccc(CCNC(=O)NS(=O)(=O)c2ccc(C)cc2)cc1 [Grapiprant] | Insoluble (Pubchem) |
| CC(C(=O)O)c1ccc2c(c1)[nH]c1ccc(Cl)cc12 (stereo not drawn) [Carprofen] | 0.00411% (Pubchem) % w/v |

test: Solubilization by meglumine chelate system (hydrotrope) at basic pH; conditions: basic pH with meglumine

| Compound | Dissolution after treatment to create a chelate system |
| --- | --- |
| CS(=O)(=O)c1ccc([C@@H](O)[C@@H](CF)NC(=O)C(Cl)Cl)cc1 [Florfenicol] | Contains an amide and an aryl sulfone, but only one aromatic group and did not dissolve when tested. |
| O=C(CNC(=O)c1ccc(C2=NOC(c3cc(Cl)cc(C(F)(F)F)c3)(C(F)(F)F)C2)c2ccccc12)NCC(F)(F)F (stereo not drawn) [Afoxolaner] | Contains two amides and two aromatic groups, but the amides are not on a chain between the two aromatic groups. The one nitrogen atom that is between the two aromatic groups is not a secondary amine, amide or amino sulfone and did not dissolve when tested. |
| CO/N=C1\C[C@]2(C[C@@H]3C[C@@H](C/C=C(\C)C[C@@H](C)/C=C/C=C4\CO[C@@H]5[C@H](O)C(C)=C[C@@H](C(=O)O3)[C@]45O)O2)O[C@H](/C(C)=C/C(C)C)[C@H]1C [Moxidectin] | No amines, amides, amino sulfones, or aromatic groups and did not dissolve when tested. |
| O=[N+]([O-])/N=C1\NCCN1Cc1ccc(Cl)nc1 [Imidacloprid] | Contains a secondary amine and other nitrogen containing groups but only one aromatic group and did not dissolve when tested. |
| CCN1CCN(c2cc3c(cc2F)c(=O)c(C(=O)O)cn3C2CC2)CC1 [Enrofloxacin] | Contains only tertiary amines and only one aromatic group and did not dissolve when tested. |
| CC[C@H](C)[C@H]1O[C@]2(C=C[C@@H]1C)C[C@@H]1C[C@@H](C/C=C(\C)[C@@H](O[C@H]3C[C@H](OC)[C@@H](O[C@H]4C[C@H](OC)[C@H](NC(C)=O)[C@H](C)O4)C(C)O3)[C@@H](C)/C=C/C=C3\CO[C@@H]4[C@H](O)C(C)=C[C@@H](C(=O)O1)[C@]34O)O2 (stereo partly drawn) [Eprinomectin] | Contains an amide, but no amines, amino sulfones or aromatic groups and did not dissolve when tested. |
| O=C(NC(=O)c1c(F)cccc1F)Nc1cc(Cl)c(OC(F)(F)C(F)C(F)(F)F)cc1Cl (stereo not drawn) [Lufenuron] | Contains two aromatic groups separated by two amide groups between the two aromatic groups and did not dissolve when tested. |
| Cc1cc(-n2c(=O)[nH]c(=O)n(C)c2=O)ccc1Oc1ccc(S(=O)(=O)C(F)(F)F)cc1 [Ponazuril] | Contains two aromatic groups and a sulfoxide and an amide, but the amide is not on the chain between the two aromatic rings and did not dissolve when tested. |
| COc1ccc(-c2cc(C(F)F)nn2-c2ccc(S(N)(=O)=O)cc2)cc1F [Deracoxib] | Contains two aromatic groups and an aryl amino sulfone but the two nitrogen atoms between the aromatic groups are not secondary amines, amides or amino sulfones and did not dissolve when tested. |
| COC(=O)Nc1nc2ccc(Sc3ccccc3)cc2[nH]1 [Fenbendazole] | Contains two aromatic groups and an amide, but the amide is not on the chain between the two aromatic groups and did not dissolve when tested. |
| COc1ccc2[nH]c([S+]([O-])Cc3ncc(C)c(OC)c3C)nc2c1 (stereo not drawn) [Omeprazole] | Contains an aromatic benzene ring, a sulfoxide and an aromatic benzimidazole group, but it does not contain a secondary amine, amide or amino sulfone group and did not dissolve when tested. |
| CC1(C)OC(=O)C(OCC2CC2)=C1c1ccc(S(C)(=O)=O)cc1 [Firocoxib] | Does not contain any nitrogen and only one aromatic group with an aryl sulfone and did not dissolve when tested. |

same assay, conditions: basic pH, meglumine at least 2:1 molar ratio (meglumine to molecule)

| Compound | Examples of Solubilities Demonstrated in Experiments (in w/v) |
| --- | --- |
| CCc1nc2c(C)nc(C)cc2n1-c1ccc(CCNC(=O)NS(=O)(=O)c2ccc(C)cc2)cc1 [Grapiprant] | At least 1.5% w/v |
